# Results as given in patent US12234228B2, “Nitric oxide donor and anti-oxidant compounds” (University of North Texas Health Science Center, priority 2018, dated 2025).
# Legend:
# [1] = pyrogallol induced ROS (superoxide) scavenging assay; format: biochemical; settings: Concentration 250 μM; Time 0.5 h
# [2] = test system: Nitric oxide synthetase (NOS); test: NOS activating activity in HUVEC under H2O2 stress; format: cell-based, Human; settings: for level of NOS: HUVEC treated with H2O2, both doses 0.05 μM and 0.5 μM; for eNOS activity: HUVEC under H2O2 induced oxidative stress
# Protocol: In vitro Nitric oxide synthetase (NOS) activating activity. Human Umbilical Vascular Endothelial Cells (HUVECs) were plated at a density of 2×10^5 cells per well and were treated with or without H2O2 (200 μM) and compounds at different concentrations. NOS knock-down samples (NOSi) were cells exposed to a competitive NOS inhibitor L-NNA at 50 μM. After 24-hour-treatment, total NOS activity from treated cells was quantified using OxiSelect™ Intracellular Nitric Oxide (NO) Assay Kit where NOS activity correlates to fluorescent intensity^5.
# ROS in HUVEC cells = test: ROS scavenging in HUVEC under oxidative stress (DCFDA assay); format: cell-based, Human; settings: H2O2 induced oxidative stress, SA-9 at 0.05 μM
# HUVEC [3] = test: HUVEC viability / cytoprotection under H2O2 induced oxidative stress (MTT); format: cell-based, Human
# HUVEC [4] = test: in vitro angiogenesis / tube formation under oxidative stress; format: cell-based, Human
# Protocol: In vitro angiogenesis studies. Cultrex reduced growth factor basement membrane extracted gel (Cat. 3433-005-01, R&D Systems, Inc.) was coated on bottom of μ-Slide angiogenesis wells (Cat. 81506, iBidi GmbH Co.). ECs at early passages (passage 6th or earlier) were then seeded on gel at a seeding density of 25,000 cells/cm^2. Next, cells were treated with treatment groups (SA-2, SA-10, SA-10 NPs, VEGF) under stress condition (200 μM H2O2). After 12 hours of incubation, formation of new microtubes were visualized and captured on phase contrast microscopes. Images were then stacked and processed with Angiogenesis analyzer on ImageJ.
# endothelial cells = test: transwell chemotaxis EC migration under oxidative stress; format: cell-based, Human
# Protocol: Cell migration studies. Transwell chemotaxis migration studies were conducted to study effects of SA-2 and SA-10 drugs on the migration of endothelial cells under stress conditions. To this, ECs were seeded at 50,000 cells/cm^2 on upper compartment (low serum media with 200 μM H2O2) and attracted to migrate through 8 μm-pore membrane by chemotaxis (SA compounds dissolved in low serum media with 200 μM H2O2) added in lower compartment. At 12 hours, migrated cells were fixed with 4% paraformaldehyde and stained with crystal violet prior to imaging and counting by Cell counter on ImageJ.
# [5] = test system: human trabecular meshwork cells; test: cytoprotection of human trabecular meshwork cells under TBHP induced oxidative stress; format: cell-based; settings: for concentration providing cytoprotection: oxidative stress induced cell death model
# [6] = test system: primary microglia isolated from rat retina; test: TII induced nitric oxide in primary microglia (Greiss assay); format: cell-based; settings: 10 μM, 24 h
# [7] = test system: primary microglia isolated from rat retina; test: TII induced cell death in primary microglia (LDH assay); format: cell-based; settings: 10 μM, 24 h
# [8] = test system: primary microglia isolated from rat retina; test: TII induced ROS in primary microglia (DCFDA assay); settings: for TII induced ROS production: 10 μM, 24 h, TII = TNF-α, IL-1β, IFN-γ
# [9] = test system: mouse hippocampal neural cells (HT-22); test: cytotoxicity / proliferation in mouse hippocampal neural cells (HT-22); settings: for cell proliferation: different doses
# [10] = test system: plasminogen activating inhibitor-1 (PAI-1); test: DEX induced PAI-1 in human trabecular meshwork cells (western blot); format: cell-based; settings: DEX 100 nM, compound 100 μM, 48 hr, conditioned medium
# Protocol: Briefly, cells were plated at a density of 2×10^5 cells per well and were treated with DEX (100 nM) or vehicle (ethanol) in the presence of 100 μM of SA-1, SA-2, SA-9, SA-10 and PBA (positive control) for 48 hr. Conditioned medium was collected for western blot. Experiments were performed in triplicates.
# In vitro plasminogen activating inhibitor-1 (PAI-1) activity. Human primary trabecular meshwork (hTM) cells were plated in 6-well plates at a density of 2×10^5 cells per well and were treated with dexamethasone (DEX, 100 nM) or vehicle (ethanol) in the presence of test compounds (100 μM) for 48 hr. Conditioned medium was collected for Western Blot. Experiments were performed in triplicates […].
Structure (SMILES),AUCt=0 to t=3h [1],level of NOS [2],eNOS activity [2],ROS scavenging activity in DCFDA assay (ROS in HUVEC cells),"cytoprotective activity (HUVEC [3]; HUVEC, H2O2 induced oxidative stress, different concentrations)",angiogenesis and new tube formation (HUVEC [4]; HUVEC under oxidative stress (200 μM H2O2)),"angiogenesis and new tube formation (FIG. 5) (HUVEC [4]; SA-9 0.5 μM, SA-10 0.005 μM, H2O2 200 μM, low serum media)",EC migration (endothelial cells),"EC migration (FIG. 6) (endothelial cells; 0.5 μM, transwell)",cytoprotective activity ([5]; TBHP (300 μM) induced oxidative stress),concentration providing cytoprotection [5] [µM],TII induced nitric oxide (nitrite) production [6],TII induced cell death (LDH release) [7],TII induced ROS production [8],"activation of microglia by the compound itself ([8]; rat primary microglia, without TII)",cytotoxicity ([9]; different concentrations),cell proliferation [9],effective range of concentration to protect ECs (HUVEC [3]; ECs under H2O2 stress),"doses showing cytoprotective activity (HUVEC [3]; HUVEC, H2O2 induced oxidative stress)",DEX induced PAI-1 [10]
Nc1c[n+](C2CCSCC2)no1 [SA-9],3402,increased the level of NOS significantly,increase in eNOS activity,scavenged ROS,potent cytoprotective activity,induce angiogenesis and new tube formation,induce angiogenesis and new tube formation,induce EC migration,induce EC migration,superior cytoprotective activity,8,decrease,decrease the cell death,decrease,did not activate,not toxic to neural cells,dose dependent increase in cell proliferation,–,–,–
"O=c1cc(-c2ccccc2)oc2cc(O)c(O)c(O)c12 [Baicalein, baicalein]",1944,–,–,–,–,–,–,–,–,–,–,–,–,–,–,–,–,–,–,–
"CC1(C)CC([n+]2cc(N)on2)CC(C)(C)N1O [SA-2, reference compound]",3338,increased the level of NOS significantly,induced eNOS signals,–,–,–,–,–,–,–,16,–,–,–,–,–,didn't show such trend,up to 1 μM,decreased as the dose increased,didn't show such activity
"[NH-]c1c[n+](N2CCOCC2)no1 [SIN-1, reference compound]",1856,–,–,–,–,–,–,–,–,–,–,–,–,did not,–,–,–,–,–,–
